US10561736B1, “Apoptosis inhibitor formulations for prevention of hearing loss” (Spiral Therapeutics, Inc., priority 2019, dated 2020)
Where two headings read alike, the source gives them in different places.

Assays:
HEI-OC1 cells [1] = conditions: cellular model of CisPt-induced apoptosis; IEB Symposium abstracts 2016; cited from earlier work
HEI-OC1 cells [2] = assay: release of mitochondrial Cytc in HEI-OC1 cells with CisPt (flow cytometry); assay type: cell-based; conditions: cellular model of CisPt-induced apoptosis
Method: Flow cytometry was also used to characterize the effect of LPT99 in the release of mitochondrial Cytc in HEI-OC1 cells in vitro with CisPt prevention.
(§1) The effect of LPT99 on proliferation of non-apoptotic cells was studied. A549 cells were cultured in the presence of LPT99 for up to 6 days; the cell number was monitored by flow cytometry, and doubling time was calculated.

Sprague-Dawley rats = assay: functional observation battery, IP injection; assay type: in vivo; conditions: rat
Method: A functional observation battery was conducted with LPT99 administered via IP (intraperitoneal) injection in Sprague-Dawley rats. The study was preceded by a non-GLP maximum tolerated dose (MTD) toxicity study, via the same administration and test system, which determined the MTD of LTP99 to be 1000 mg/kg. LPT99 was suspended in vehicle [0.5% w/v methylcellulose and 0.1% v/v TWEEN®80 in Milli-Q water] and administered intraperitoneally to Sprague-Dawley rats as a single dose at the doses of 100 (low—G2/G2TK), 300 (mid—G3/G3TK), and 750 (high—G4/G4TK) mg/kg body weight. The rats in vehicle control groups (G1/G1TK) received the vehicle alone. The dose volume administered was at an equivolume of 10 mL/kg body weight for all groups.
LPT99 was suspended in vehicle [0.5% w/v methylcellulose and 0.1% v/v TWEEN® 80 in Milli-Q water] and administered intraperitoneally to Sprague-Dawley rats as a single dose at the doses of 100 (low—G2/G2TK), 300 (mid—G3/G3TK), and 750 (high—G4/G4TK) mg/kg body weight. The rats in vehicle control groups (G1/G1TK) received the vehicle alone. The dose volume administered was at an equivolume of 10 mL/kg body weight for all groups.

[3] = tested on: BALB/c 3T3 mouse fibroblasts; assay: in vitro phototoxicity; assay type: cell-based; conditions: ≤100 μM
Method: An in vitro experiment was performed in BALB/c 3T3 mouse fibroblasts to determine the phototoxic potential of LPT99 at concentrations of ≤100 μM in 3T3 L1 cells.

[4] = tested on: Chinese hamster ovary (CHO) cell; assay: in vitro CHO cell aberration assay; assay type: cell-based; conditions: presence or absence of S9 metabolism
A549 cells = assay: proliferation of non-apoptotic A549 cells; assay type: cell-based; conditions: A549 cells cultured with LPT99 up to 6 days; reversible on removal
Method: as §1

opioid (kOP) = opioid (kOP) (Homo sapiens, UniProt P41145); assay: off-target selectivity panel; assay type: binding
opioid (kOP), sequence (P41145 whole entry): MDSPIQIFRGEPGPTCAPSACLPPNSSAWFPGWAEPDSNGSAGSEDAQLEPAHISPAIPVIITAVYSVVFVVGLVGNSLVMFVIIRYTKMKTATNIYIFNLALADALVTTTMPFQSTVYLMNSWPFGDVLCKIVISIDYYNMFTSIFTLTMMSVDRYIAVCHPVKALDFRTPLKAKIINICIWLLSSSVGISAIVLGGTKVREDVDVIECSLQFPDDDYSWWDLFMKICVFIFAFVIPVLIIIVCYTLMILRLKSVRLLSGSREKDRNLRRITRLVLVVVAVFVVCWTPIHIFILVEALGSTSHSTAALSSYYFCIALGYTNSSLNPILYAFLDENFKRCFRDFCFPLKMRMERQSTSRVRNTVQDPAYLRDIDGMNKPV
Method: (§2) To identify off-target activities of LPT99, its selectivity against a panel of receptors (44 G-protein-coupled receptors [GPCR] and 4 non-GPCR), 4 ion channels, and 3 transporters were analyzed. The cell line, HEI-OC1 (house ear institute organ of Corti 1), which expresses several characteristic markers of the organ of Corti sensory cells (Kalinec, et al., Audiol. Neurootol. 2003, 8(4), 177-89), was used to evaluate the efficacy of LPT99 in preventing apoptosis due to […]. Cells were pre-incubated with LPT99, followed by […] for 24 hours.
(§3) For 14 of the tested targets-adenosine receptor 3 (A3); cholecystokinin: cholecystokinin receptor 1 (CCK1); melatonin receptor (MT1); neurokinin (NK2 and NK3); opioid (kOP and mOP); serotonin receptors (5HT-1A, 5HT-2A, 5HT-2B and 5HT-7); and vasopressin (ViA; Na+channel site 2 and C1-GABA-gated channel)—the LPT99 affinity was >50%. At 1 μM, the inhibition of 13 of these targets was <50%, indicating a very low affinity with LPT99.

vasopressin (ViA) = vasopressin (ViA) (Homo sapiens, UniProt P37288); assay: off-target selectivity panel; assay type: binding
vasopressin (ViA), sequence (P37288 whole entry): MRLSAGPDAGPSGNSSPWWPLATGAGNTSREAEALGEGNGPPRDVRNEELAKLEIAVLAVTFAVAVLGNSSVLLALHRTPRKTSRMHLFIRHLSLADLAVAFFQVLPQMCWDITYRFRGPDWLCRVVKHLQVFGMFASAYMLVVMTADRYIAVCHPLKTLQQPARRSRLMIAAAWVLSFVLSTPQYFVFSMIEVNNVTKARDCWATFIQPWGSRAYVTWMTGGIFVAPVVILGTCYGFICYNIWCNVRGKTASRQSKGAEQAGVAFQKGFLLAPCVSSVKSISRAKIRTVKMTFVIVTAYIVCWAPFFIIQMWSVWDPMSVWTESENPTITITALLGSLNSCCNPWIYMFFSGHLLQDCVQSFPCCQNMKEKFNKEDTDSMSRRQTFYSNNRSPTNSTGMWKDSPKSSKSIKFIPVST
Method: as §2, §3

melatonin receptor (MT1) = melatonin receptor (MT1) (Homo sapiens, UniProt P48039); assay: off-target selectivity panel; assay type: binding
melatonin receptor (MT1), sequence (P48039 whole entry): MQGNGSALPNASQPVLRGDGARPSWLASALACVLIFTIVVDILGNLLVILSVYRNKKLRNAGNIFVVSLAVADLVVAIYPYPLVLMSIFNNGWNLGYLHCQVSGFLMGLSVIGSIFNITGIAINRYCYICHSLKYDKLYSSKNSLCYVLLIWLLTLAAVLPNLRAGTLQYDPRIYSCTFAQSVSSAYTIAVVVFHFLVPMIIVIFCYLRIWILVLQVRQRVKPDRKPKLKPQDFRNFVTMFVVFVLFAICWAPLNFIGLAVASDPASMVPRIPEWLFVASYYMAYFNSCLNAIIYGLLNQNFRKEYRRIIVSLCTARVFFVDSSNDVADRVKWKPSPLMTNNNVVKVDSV
Method: as §2, §3

[5] = target: serotonin receptor 5HT-2A (Homo sapiens, UniProt P28223); assay: off-target selectivity panel; assay type: binding
serotonin receptor 5HT-2A, sequence (P28223 whole entry): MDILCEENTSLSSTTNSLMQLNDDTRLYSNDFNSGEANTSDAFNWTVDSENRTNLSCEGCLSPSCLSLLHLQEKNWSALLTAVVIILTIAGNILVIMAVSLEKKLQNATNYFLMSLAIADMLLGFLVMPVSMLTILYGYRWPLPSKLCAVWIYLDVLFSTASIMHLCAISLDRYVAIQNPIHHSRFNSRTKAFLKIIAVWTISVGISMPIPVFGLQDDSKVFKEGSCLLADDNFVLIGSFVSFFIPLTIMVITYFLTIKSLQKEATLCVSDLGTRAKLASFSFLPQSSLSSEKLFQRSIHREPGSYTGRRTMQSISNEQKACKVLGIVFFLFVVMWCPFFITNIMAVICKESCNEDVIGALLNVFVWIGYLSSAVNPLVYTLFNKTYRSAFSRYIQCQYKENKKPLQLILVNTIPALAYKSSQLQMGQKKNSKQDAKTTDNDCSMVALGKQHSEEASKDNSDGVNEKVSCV
Method: as §2, §3

[6] = target: cholecystokinin receptor 1 (CCK1) (Homo sapiens, UniProt P32238); assay: off-target selectivity panel; assay type: binding
cholecystokinin receptor 1 (CCK1), sequence (P32238 whole entry): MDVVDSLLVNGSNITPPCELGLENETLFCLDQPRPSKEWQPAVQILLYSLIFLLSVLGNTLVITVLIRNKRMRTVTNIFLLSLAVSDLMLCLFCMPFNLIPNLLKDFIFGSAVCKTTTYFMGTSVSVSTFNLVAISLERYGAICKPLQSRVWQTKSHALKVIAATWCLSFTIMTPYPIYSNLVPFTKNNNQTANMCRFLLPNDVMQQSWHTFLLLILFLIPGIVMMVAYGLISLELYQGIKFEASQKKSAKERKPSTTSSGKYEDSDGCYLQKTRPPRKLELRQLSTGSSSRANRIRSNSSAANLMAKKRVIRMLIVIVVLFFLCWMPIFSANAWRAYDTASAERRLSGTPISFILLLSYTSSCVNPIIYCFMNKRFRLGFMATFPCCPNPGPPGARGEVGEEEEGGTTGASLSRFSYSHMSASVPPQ
Method: as §2, §3

serotonin receptor 5HT-7 = serotonin receptor 5HT-7 (Homo sapiens, UniProt P34969); assay: off-target selectivity panel; assay type: binding
serotonin receptor 5HT-7, sequence (P34969 whole entry): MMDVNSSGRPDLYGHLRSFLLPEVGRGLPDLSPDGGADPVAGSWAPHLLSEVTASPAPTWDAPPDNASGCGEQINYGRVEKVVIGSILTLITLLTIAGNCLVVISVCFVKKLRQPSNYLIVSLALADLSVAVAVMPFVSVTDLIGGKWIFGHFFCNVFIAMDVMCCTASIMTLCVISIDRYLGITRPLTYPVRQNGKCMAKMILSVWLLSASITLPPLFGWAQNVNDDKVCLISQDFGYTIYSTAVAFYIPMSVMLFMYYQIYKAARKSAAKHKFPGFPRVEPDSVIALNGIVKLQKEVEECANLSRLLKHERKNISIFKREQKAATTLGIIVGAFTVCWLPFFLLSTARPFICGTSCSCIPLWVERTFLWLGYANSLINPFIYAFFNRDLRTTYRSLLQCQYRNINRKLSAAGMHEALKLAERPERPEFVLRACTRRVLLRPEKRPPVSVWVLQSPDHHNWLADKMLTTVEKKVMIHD
Method: as §2, §3

Na+channel site 2 = assay: off-target selectivity panel; assay type: binding
Method: as §2, §3

C1-GABA-gated channel = assay: off-target selectivity panel; assay type: binding
Method: as §2, §3

[7] = plasma concentrations after IT administration of LPT99-CD; assay type: in vivo, rat
Method: In a study conducted in female Wistar rats, plasma concentrations of LPT99 were evaluated at 1 hour and 2, 4, 7, and 14 days after IT administration of a single 50 μL dose of 50, 100, or 200 μM LPT99 formulated in a 5% HPβ-cyclodextrin (“CD”) vehicle (LPT99-CD).

guinea pigs = assay: dermal sensitization main study (Buehler test); assay type: in vivo, guinea pig; conditions: topical 797 μM
Method: A GLP-compliant dermal sensitization study was conducted with LPT99 in guinea pigs.
The test article, LPT99, was in a neutral-pH, buffered, isotonic solution containing a thermoreversible compound.
The main study consisted of 2 groups of 20 or 10 guinea pigs. […] Group 2 was 5 male and 5 female animals that were not dosed with LPT99 (Group 2) during the induction phase and served as naïve controls; Group 2 was challenged with LPT99 on Day 28. LPT99 was topically administered to the skin in the shaved scapula area in a volume of 50 μL on Study Days 0, 7, and 14 (induction doses), and on Day 28 (challenge dose). These observations and measurements were performed: Clinical observations (daily), Body weights (weekly), Draize scoring (24 and 48 hours after bandage removal on Days 29 and 30), Primary Dermal Irritation Index (PDII) scoring of extent of irritation according to the scale in. The PDII (post-challenge) was calculated for the test article or vehicle by dividing the sum of the Total Irritation Score by the number of observations (e.g., 3 days×6 animals=18 (number of observations).

COc1ccc2[nH]cc(CCNC(=O)CC3C(=O)N(CCc4ccc(Cl)cc4Cl)CC(=O)N3CCc3cccs3)c2c1 (centres unmarked) [LPT99, 2-(4-(2,4-dichlorophenethyl)-3,6-dioxo-1-(2-(thiophen-2-yl)ethyl)piperazin-2-yl)-N-(2-(5-methoxy-1H-indol-3-yl)ethyl)acetamide]
release of Cytc from mitochondria (HEI-OC1 cells [1]): decreased release of Cytc from mitochondria | release of Cytc from mitochondria (HEI-OC1 cells [2]): decreased release of Cytc from mitochondria | neurological parameters (Sprague-Dawley rats; IP 100 mg/kg, Day 1): unaffected | motor activity scores (Sprague-Dawley rats; IP 300 and 750 mg/kg, both sexes, day 1, reversible by Day 15): lower motor activity scores | cytotoxicity in the presence or absence of ultraviolet-visible irradiation [3]: not cytotoxic | phototoxicity [3]: not be phototoxic | structural aberrations in cultured mammalian cells [4]: did not induce structural aberrations | cellular proliferation of non-apoptotic cells (A549 cells): delayed cellular proliferation | inhibition at 1 µM (opioid (kOP); 1 μM): < 50% | inhibition at 10 µM (opioid (kOP); 10 μM, read-out: affinity (inhibition) kOP): > 50% | inhibition at 1 µM (vasopressin (ViA); 1 μM): < 50% | inhibition at 10 µM (vasopressin (ViA); 10 μM, read-out: affinity (inhibition) ViA): > 50% | inhibition at 0.1 µM (melatonin receptor (MT1); 0.1 μM): 6% | inhibition at 1 µM (melatonin receptor (MT1); 1 μM): 53% | inhibition at 10 µM (melatonin receptor (MT1); 10 μM, read-out: affinity (inhibition) MT1): > 50% | inhibition at 1 µM ([5]; 1 μM): < 50% | inhibition at 10 µM ([5]; 10 μM, read-out: affinity (inhibition) 5HT-2A): > 50% | inhibition at 1 µM ([6]; 1 μM): < 50% | inhibition at 10 µM ([6]; 10 μM, read-out: affinity (inhibition) CCK1): > 50% | inhibition at 1 µM (serotonin receptor 5HT-7; 1 μM): < 50% | inhibition at 10 µM (serotonin receptor 5HT-7; 10 μM, read-out: affinity (inhibition) 5HT-7): > 50% | inhibition Na+channel site 2 (Na+channel site 2; 1 μM): < 50% | affinity (inhibition) Na+channel site 2 (Na+channel site 2; 10 μM): > 50% | inhibition C1-GABA-gated channel (C1-GABA-gated channel; 1 μM): < 50% | affinity (inhibition) C1-GABA-gated channel (C1-GABA-gated channel; 10 μM): > 50% | plasma concentration at quantitation limit (3.2 nM) as share of administered dose ([7]; 50 μM dose): 0.006% | plasma concentration at quantitation limit (3.2 nM) as share of administered dose ([7]; 100 μM dose): 0.003% | plasma concentration at quantitation limit (3.2 nM) as share of administered dose ([7]; 200 μM dose): 0.0016% | Irritant Category (guinea pigs): nonirritant (0) | mortality, clinical observations, body weights, or Draize scores (guinea pigs): No test-article-related changes | Draize scores after the challenge dose (guinea pigs; 24 or 48 hours): No Draize scores were >0 | PDII score (guinea pigs; post-challenge): 0
